These results are taken from ChEMBL document CHEMBL1135090, “Non-peptide alpha(v)beta(3) antagonists. Part 3: identification of potent RGD mimetics incorporating novel beta-amino acids as aspartic acid replacements” (Bioorg Med Chem Lett, 2002).

The target of data set [1] is Integrin alpha-V/beta-3 (Homo sapiens, UniProt P05106+P06756). Put plainly: Inhibition of high affinity radioligand binding to human alphaV-beta3 integrin. In kind it is protein-complex assay.
Data set [2] deals with T1, Integrin alpha-IIb/beta-3 (Homo sapiens) (UniProt P05106+P08514). As to the kind of experiment: Inhibition of ADP-stimulated alphaIIb-beta3 integrin mediated human platelet aggregation at 10 uM.
Data set [3] is described as follows: Partition coefficient (logP). The format is physicochemical. The note with it: octanol/water.
The target in data set [4] is T1, Integrin alpha-IIb/beta-3 (Homo sapiens). As to the kind of experiment: Inhibition of ADP-stimulated alphaIIb-beta3 integrin mediated human platelet aggregation at 776 uM.
Data set [5] shares this target. Put plainly: Inhibition of ADP-stimulated alphaIIb-beta3 integrin mediated human platelet aggregation at 11 uM.
Data set [6] in a line: Bioavailability (dose 1 mg/kg p.o. and 0.2 mg/kg i.v.). In kind it is ADME, organism-based. Conditions: eutheria, in vivo, po.
The target in data set [7] is T1, Integrin alpha-IIb/beta-3 (Homo sapiens). Put plainly: Inhibition of ADP-stimulated alphaIIb-beta3 integrin mediated human platelet aggregation at 5.7 uM.
Data set [8] in a line: Compound was tested for plasma clearance on administered orally as aqueous solutions at 1 mpk and by iv at 0.2 mpk. Conditions: 0.2 mg/kg. The format is ADME, organism-based.

Chain of Integrin alpha-V/beta-3 (P05106 27-788 limits assumed): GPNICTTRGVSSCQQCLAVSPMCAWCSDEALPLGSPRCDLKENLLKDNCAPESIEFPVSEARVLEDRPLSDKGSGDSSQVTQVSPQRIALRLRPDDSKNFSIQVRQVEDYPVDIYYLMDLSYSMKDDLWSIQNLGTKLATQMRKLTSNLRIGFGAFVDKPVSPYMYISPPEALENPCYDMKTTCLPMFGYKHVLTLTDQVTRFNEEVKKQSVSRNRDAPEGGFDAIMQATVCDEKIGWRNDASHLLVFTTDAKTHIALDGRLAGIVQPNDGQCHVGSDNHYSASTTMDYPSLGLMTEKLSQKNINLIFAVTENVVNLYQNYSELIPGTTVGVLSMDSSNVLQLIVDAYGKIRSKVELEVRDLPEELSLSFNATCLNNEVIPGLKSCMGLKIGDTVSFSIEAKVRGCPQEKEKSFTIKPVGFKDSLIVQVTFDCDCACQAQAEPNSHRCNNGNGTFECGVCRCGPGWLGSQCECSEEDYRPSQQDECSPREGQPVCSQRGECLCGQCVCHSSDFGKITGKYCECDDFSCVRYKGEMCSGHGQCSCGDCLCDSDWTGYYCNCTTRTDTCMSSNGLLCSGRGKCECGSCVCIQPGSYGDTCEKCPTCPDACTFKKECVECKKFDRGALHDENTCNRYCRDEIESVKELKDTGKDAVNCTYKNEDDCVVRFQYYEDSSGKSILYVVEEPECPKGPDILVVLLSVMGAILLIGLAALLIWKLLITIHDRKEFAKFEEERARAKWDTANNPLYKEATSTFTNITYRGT
Chain of Integrin alpha-V/beta-3 (P06756 31-889 limits assumed): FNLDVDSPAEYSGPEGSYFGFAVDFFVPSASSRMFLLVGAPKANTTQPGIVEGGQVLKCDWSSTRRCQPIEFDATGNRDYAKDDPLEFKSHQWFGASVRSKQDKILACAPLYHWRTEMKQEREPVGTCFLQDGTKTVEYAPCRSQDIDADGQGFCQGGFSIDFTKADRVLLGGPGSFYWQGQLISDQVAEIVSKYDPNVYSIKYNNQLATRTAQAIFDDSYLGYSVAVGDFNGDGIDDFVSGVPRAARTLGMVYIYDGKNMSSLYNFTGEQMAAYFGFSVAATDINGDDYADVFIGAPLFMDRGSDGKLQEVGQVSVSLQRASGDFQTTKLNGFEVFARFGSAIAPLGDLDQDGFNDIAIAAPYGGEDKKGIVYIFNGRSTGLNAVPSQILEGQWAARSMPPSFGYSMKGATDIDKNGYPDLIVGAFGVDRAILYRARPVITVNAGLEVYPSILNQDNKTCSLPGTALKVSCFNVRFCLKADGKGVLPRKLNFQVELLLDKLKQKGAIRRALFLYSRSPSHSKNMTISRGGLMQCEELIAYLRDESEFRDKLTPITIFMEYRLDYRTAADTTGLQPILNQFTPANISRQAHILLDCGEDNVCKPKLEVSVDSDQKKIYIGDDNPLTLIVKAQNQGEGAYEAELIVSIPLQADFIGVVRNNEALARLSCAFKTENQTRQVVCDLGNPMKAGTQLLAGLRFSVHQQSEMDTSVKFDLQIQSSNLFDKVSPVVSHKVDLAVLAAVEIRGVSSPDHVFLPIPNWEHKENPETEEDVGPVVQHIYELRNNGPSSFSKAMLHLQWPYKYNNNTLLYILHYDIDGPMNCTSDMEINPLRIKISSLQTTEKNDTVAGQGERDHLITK
Chain of Integrin alpha-V/beta-3 (P06756 891-1048 limits assumed): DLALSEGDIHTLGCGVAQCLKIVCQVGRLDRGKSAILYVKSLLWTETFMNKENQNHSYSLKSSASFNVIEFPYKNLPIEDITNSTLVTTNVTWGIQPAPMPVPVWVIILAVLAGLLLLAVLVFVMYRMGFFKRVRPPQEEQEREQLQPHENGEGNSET

As for `O=C(O)C[C@H](NC(=O)CN1CC[C@H](CCc2ccc3c(n2)NCCC3)C1=O)c1ccc2ccsc2c1`, the IC50 in data set [1] amounted to 2.2 nM. For the same compound, the inhibition in data set [2] was determined as 29%.

`O=C(O)C[C@H](NC(=O)CN1CC[C@H](CCc2ccc3c(n2)NCCC3)C1=O)c1ccc2c(c1)CCO2`: the IC50 in data set [1] is 1.1 nM. Moreover, the inhibition in data set [2] was 20%.

`O=C(O)C[C@H](NC(=O)CN1CC[C@H](CCc2ccc3c(n2)NCCC3)C1=O)c1ccc2ncsc2c1` gave an IC50 in data set [1] of 3.7 nM. For the same compound, the inhibition in data set [2] is 19%.

Take `O=C(O)C[C@H](NC(=O)CN1CC[C@H](CCc2ccc3c(n2)NCCC3)C1=O)c1ccc(-c2ccccc2)c(F)c1`: the IC50 in data set [1] came out at 0.57 nM. In addition, the inhibition in data set [2] is 3%.

`O=C(O)C[C@H](NC(=O)CN1CC[C@H](CCc2ccc3c(n2)NCCC3)C1=O)c1ccc2c(c1)OCC2` displayed an IC50 in data set [1] of 0.11 nM. Besides, the inhibition in data set [2] came out at 60%.

`O=C(O)C[C@H](NC(=O)CN1CC[C@H](CCc2ccc3c(n2)NCCC3)C1=O)c1ccccc1` registered an IC50 in data set [1] of 4 nM. In data set [2], the inhibition stood at 8%.

On to `O=C(O)C[C@H](NC(=O)CN1CC[C@H](CCc2ccc3c(n2)NCCC3)C1=O)c1ccc2c(c1)OC(F)(F)O2`, for which the IC50 in data set [1] came to 5.8 nM. Besides, in data set [2], the inhibition turned out to be 3%. For the same compound, the logP in data set [3] was determined as 1.44.

Turning to `O=C(O)C[C@H](NC(=O)CN1CC[C@H](CCc2ccc3c(n2)NCCC3)C1=O)c1ccc2nc(O)oc2c1`, in data set [2], the inhibition was determined as 19%.

Regarding `CCOc1ccc([C@H](CC(=O)O)NC(=O)CN2CC[C@H](CCc3ccc4c(n3)NCCC4)C2=O)cc1F`, the IC50 in data set [1] is 0.31 nM. For the same compound, the inhibition in data set [2] worked out at 28%.

As for `COc1ccc([C@H](CC(=O)O)NC(=O)CN2CC[C@H](CCc3ccc4c(n3)NCCC4)C2=O)cc1F`, the IC50 in data set [1] amounted to 0.49 nM. This compound displayed an inhibition in data set [2] of 30%.

Take `O=C(O)CCNC(=O)CN1CC[C@H](CCc2ccc3c(n2)NCCC3)C1=O`: the IC50 in data set [1] was determined as 230 nM.

Regarding `O=C(O)C[C@H](NC(=O)CN1CC[C@H](CCc2ccc3c(n2)NCCC3)C1=O)c1ccc2[nH]c(=O)oc2c1`, the 50% inhibitory concentration (IC50) in data set [1] was found to be 0.29 nM.

In turn, `O=C(O)C[C@H](NC(=O)CN1CC[C@H](CCc2ccc3c(n2)NCCC3)C1=O)c1cnc2ccccc2c1` returned a 50% inhibitory concentration (IC50) in data set [1] of 0.04 nM. The same compound had an inhibition in data set [4] of 50%.

As for `O=C(O)C[C@H](NC(=O)CN1CC[C@H](CCc2ccc3c(n2)NCCC3)C1=O)c1cccnc1`, the IC50 in data set [1] worked out at 0.35 nM. Also, in data set [5], the inhibition amounted to 50%.

`O=C(O)C[C@H](NC(=O)CN1CC[C@H](CCc2ccc3c(n2)NCCC3)C1=O)c1ccc2c(c1)OCO2` came in with an IC50 in data set [1] of 0.32 nM. The compound also displayed a bioavailability in data set [6] of 30%. For the same compound, the inhibition in data set [7] came out at 50%. In data set [8], this compound came in with a clearance of 25 mL/min/kg. In data set [3], the logP came to 0.26.

In turn, `O=C(O)C[C@H](NC(=O)CN1CC[C@H](CCc2ccc3c(n2)NCCC3)C1=O)c1ccc2c(c1)CCC2` showed an IC50 in data set [1] of 29 nM.

In data set [1], `O=C(O)C[C@H](NC(=O)CN1CC[C@H](CCc2ccc3c(n2)NCCC3)C1=O)c1cccc(F)c1` had an IC50 of 1.8 nM. Further, the inhibition in data set [2] was found to be 6%.

The IC50 is the point on the concentration scale where inhibition reaches its midpoint. For orientation: inhibition means how much of the control response was suppressed. A higher inhibition goes with strong suppression. As usually defined, the logP is a log measure of how a compound divides between an organic and an aqueous phase. For orientation: bioavailability means the share of a dose that reaches the circulation, judged against a reference dose that is usually intravenous. A high value points to good availability.
